{
  "source": "patent US6399633B1",
  "about": "“Use of 4-H-1-benzopryan-4-one derivatives as inhibitors of smooth muscle cell proliferation” (priority 1999, dated 2002)",
  "key": {"neointimal formation": {"test_system": "neointimal formation", "settings": "instilled into the carotid artery at the time of injury; cited from earlier work"}, "[1]": {"test_system": "Erk1 (p44 MAP kinase) and Erk2 (p42 MAP kinase)", "experiment": "Western blot of phosphorylated Erk1/Erk2 in HASMC", "assay_type": "cell-based, human", "settings": "growth factors 30 min", "procedure": "(§1) Western blot analysis—Quiescent HASMC were treated in the presence or absence of growth factors and/or flavopiridol as indicated. Western blot analysis was performed as previously described^18. The primary antibodies were: a polyclonal anti-human cyclin D1 antibody (M-20, Santa Cruz), a monoclonal anti-human proliferating cell nuclear antigen (PCNA) antibody (PC10, Sigma), a phosphorylation-specific p44/42 (Erk1/Erk2) MAP kinase monoclonal antibody (New England Biolabs), and a monoclonal anti-Rb antibody (G3-245, Pharmigen), which recognizes the phosphorylated (pRb) and highly phosphorylated (ppRb) Rb species. For immunoblotting studies, experiments were repeated at least three times."}, "[2]": {"test_system": "Erk1 (p44 MAP kinase) and Erk2 (p42 MAP kinase)", "experiment": "In-gel kinase assay (myelin basic protein) in HASMC", "assay_type": "cell-based, human", "settings": "growth factors 30 min", "procedure": "In-gel kinase assay—Quiescent HASMC were treated with growth factors for 30 min and total cell lysates were prepared as described for Western blotting. In some experiments, HASMC were pretreated for 60 min with 30 μmol/L PD98059, flavopiridol, or vehicle. Equal amounts of proteins (50 μg/lane) were resolved on a polyacrylamide gel that was copolymerized with 350 μg/ml myelin basic protein. The gel was treated with [γ-^32P]ATP and autoradiography was performed as described^19."}, "PCNA": {"test_system": "PCNA", "experiment": "Western blot of PCNA in HASMC", "assay_type": "cell-based, human", "settings": "flavopiridol 75 nmol/L pretreatment, 24 h", "procedure": "as §1"}, "[3]": {"settings": "doses below the toxic threshold, Phase I human studies; cited from earlier work"}, "Cdc2 and Cdk2": {"test_system": "Cdc2 and Cdk2", "experiment": "Cdk activity (histone H1 kinase assay) in HASMC lysates", "assay_type": "cell-based, human", "settings": "flavopiridol 75 nmol/L pretreatment, 24 h", "method": "Cdk activity—Quiescent HASMC were treated with agonists and inhibitors for 24 h and total cell lysates were prepared as described for Western blotting. The kinase assay was performed with a histone H1 kinase assay kit (Upstate Biotechnology) following the manufacturer's instructions. In brief, 10 μl of peptide inhibitors for protein kinase C (2 μmol/L) and protein kinase A (2 μmol/L), 100 μg cell lysate, 10 μl assay buffer and 10 μl of a mixture containing 75 μmol/L magnesium chloride, 500 μmol/L ATP and 1 μCi/ml [γ-^32P]ATP were mixed in a microcentrifuge tube. After incubation at 30° C. for 10 min, aliquots were pipetted onto phosphocellulose papers. The papers were washed in 0.75% phosphoric acid, followed by measurement of cpm in a scintillation counter (Beckman). Results are expressed as the mean±SEM for three samples and are representative of three independent experiments."}, "cyclin D1": {"test_system": "cyclin D1", "experiment": "Western blot of cyclin D1 in HASMC", "assay_type": "cell-based, human", "settings": "flavopiridol 75 nmol/L pretreatment, 24 h", "procedure": "as §1"}, "[4]": {"test_system": "Human aortic smooth muscle cells (HASMC)", "experiment": "Cell counts of growth-arrested HASMC", "assay_type": "cell-based", "settings": "bFGF 10 ng/ml, flavopiridol 75 nmol/L, three days; bFGF alone 3-fold increase", "procedure": "Cell culture—Human aortic smooth muscle cells (HASMC) were obtained from Clonetics and were cultured as previously described^18. Cells were used at passages 5-9. Prior to performing experiments, cells were growth-arrested at 80% confluence for 48 h with medium containing 0.2% fetal bovine serum. Cell counts—Growth-arrested HASMC grown to 50% confluence in 6-well plates were treated with or without flavopiridol (75 nmol/L) or bFGF (10 ng/ml). At intervals after treatment, cells were trypsinized and cell numbers determined using a hemocytometer."}, "[5]": {"settings": "in vivo; cited from earlier work"}, "Rb": {"test_system": "Rb", "experiment": "Western blot of Rb phosphorylation in HASMC", "assay_type": "cell-based, human", "settings": "flavopiridol 75 nmol/L, 24 h", "procedure": "as §1"}, "[6]": {"test_system": "Human aortic smooth muscle cells (HASMC)", "experiment": "Cell proliferation ELISA (BrdU incorporation)", "assay_type": "cell-based", "settings": "flavopiridol 75 nmol/L; bFGF- and thrombin-induced", "procedure": "Cell culture—Human aortic smooth muscle cells (HASMC) were obtained from Clonetics and were cultured as previously described^18. Cells were used at passages 5-9. Prior to performing experiments, cells were growth-arrested at 80% confluence for 48 h with medium containing 0.2% fetal bovine serum. Cell proliferation ELISA—Cell proliferation was measured by ELISA (Amersham Life Science). HASMC were grown in gelatin-coated 96-well plates and made quiescent. Cells were treated with 10 ng/ml bFGF, 2 U/ml thrombin, or vehicle for 24 h. Flavopiridol (75 nmol/L) was administered 1 h prior to growth factor treatment. 5-Bromo-2′-deoxyuridine (BrdU) was added to a final concentration of 10 μmol/L during the last 2 h of treatment. BrdU incorporation was measured as described^19. Results are expressed as mean±SEM for 12 samples per condition from two independent experiments."}, "[7]": {"test_system": "rat carotid artery neointimal formation", "settings": "for PCNA-positive nuclei in the neointima: 5 mg/kg orally", "procedure": "Rat carotid injury model—Injury to the rat carotid artery was performed essentially as described^2. Adult male Sprague-Dawley rats (400-500 g, Zivic-Miller) were anesthetized with an intraperitoneal injection of ketamine ([…]) and xylazine (4 mg/kg). The left internal carotid was then cannulated with a 2F embolectomy catheter. The balloon was inflated with saline and withdrawn across the artery three times to produce a distending and denuding injury. The right carotid artery was uninjured and served as a control of injury for each animal. Immediately following recovery from anesthesia and for four additional days thereafter, rats were administered flavopiridol (5 mg/kg in water) or water by gavage in a blinded manner. […] At specified time points after carotid injury, rats were anesthetized as above and perfusion-fixed systemically with 4% paraformaldehyde in phosphate-buffered saline. Right and left carotid arteries were removed and distended by injection of 4% paraformaldehyde through the lumen, after which they were dehydrated and stored in 70% ethanol at 4° C. Immunohistochemistry was performed as previously described^18, using the monoclonal PCNA antibody and a polyclonal anti-human Cdk2 antibody (M2-G, Santa Cruz).\nImage analysis—The extreme distal and proximal regions of each artery (approx. 500 μm) were removed. Ten intermediate cross-sections (8 μm each) taken 500 μm apart were analyzed from each artery. Slides were fixed and stained with hematoxylin and eosin as previously described^18. Using a Nikon Diaphot 300 microscope and a 4× objective, each cross-section was captured as a digital image using a Hamamatsu C5985 video camera and TCPro 2.41 (Coreco, Inc.). Medial and neointimal areas were determined using NIH Image software. Medial and neointimal boundaries were determined by one slide reviewer (A.M.) and verified in a blinded fashion by a second reviewer (C.P.). Lesion size was expressed as the neointima/media ratio. Results for each group were expressed as the mean±SEM."}, "[8]": {"test_system": "Human aortic smooth muscle cells (HASMC)", "experiment": "Trypan-blue exclusion viability", "assay_type": "cell-based", "settings": "flavopiridol 75 nmol/L, quiescent HASMC", "procedure": "Trypan-blue exclusion—HASMC were grown in 5-cm dishes at low confluence and growth-arrested as described. Cells were treated with flavopiridol (75 nmol/L) or tumor necrosis factor-[…] (TNF-[…]; 50 ng/ml) for the indicated times. Following the removal of the medium, 0.4% trypan blue in phosphate-buffered saline was added to the dishes. After 5 min, the cells in the dishes were counted under the microscope. Blue cells were counted as nonviable cells."}},
  "note": "Entries after “also recorded” stand apart in the source; their conditions may differ. Like-named read-outs stand apart in the source and are kept apart here.",
  "data": [
    {"smiles": "COc1ccc(CNc2nc(N(CCO)CCO)nc3c2ncn3C(C)C)cc1", "note": "[CVT-313]", "values": [
      {"measurement": "neointimal formation", "setting": "neointimal formation", "value": "can also inhibit neointimal formation"}
    ]},
    {"smiles": "COc1cccc(-c2cc(=O)c3ccccc3o2)c1N", "note": "[PD98059, reference compound]", "values": [
      {"measurement": "thrombin- and bFGF-induced phosphorylation of Erk1 and Erk2", "setting": "[1]; PD98059 30 μmol/L", "value": "blocked"},
      {"measurement": "thrombin- and bFGF-induced Erk1 and Erk2 activity (in-gel kinase)", "setting": "[2]; PD98059 30 μmol/L pretreatment 60 min", "value": "inhibitable"}
    ]},
    {"smiles": "CN1CC[C@H](c2c(O)cc(O)c3c(=O)cc(-c4ccccc4Cl)oc23)[C@H](O)C1", "note": "[flavopiridol, (−)-cis, -5,7-dihydroxy-2-(2-chlorophenyl)-8-[4-(3-hydroxy-1-methyl)piperidinyl]-4H-benzopyran-4-one]", "values": [
      {"measurement": "growth factor-induced increased expression of PCNA", "setting": "PCNA", "value": "blocked"},
      {"measurement": "median serum concentrations", "setting": "[3]", "value": 425, "unit": "nmol/L"},
      {"measurement": "thrombin- and bFGF-induced phosphorylation of Erk1 and Erk2", "setting": "[1]; flavopiridol 75 nmol/L", "value": "no effect"},
      {"measurement": "bFGF- and thrombin-induced increases in histone H1 kinase (cyclin-dependent kinase) activity", "setting": "Cdc2 and Cdk2", "value": "totally blocked; also recorded: inhibited"},
      {"measurement": "bFGF- and thrombin-induced upregulation of cyclin D1 protein", "setting": "cyclin D1", "value": "completely blocked"},
      {"measurement": "bFGF-induced increase in cell number", "setting": "[4]", "value": "efficiently blocked"},
      {"measurement": "biological half-life", "setting": "[5]", "value": 2.5, "unit": "hrs"},
      {"measurement": "thrombin- and bFGF-induced hyperphosphorylation of Rb", "setting": "Rb", "value": "inhibited; also recorded: blocked"},
      {"measurement": "inhibition of SMC proliferation", "setting": "[6]", "value": "near complete inhibition"},
      {"measurement": "Cdk2-positive cells in the neointima vs untreated rats", "setting": "[7]; 7 and 14 days after injury, 5 mg/kg by gavage", "value": "much less common"},
      {"measurement": "reduction of neointimal area", "setting": "[7]; 7 days after injury, 5 mg/kg by gavage", "value": 35, "unit": "%"},
      {"measurement": "PCNA-positive nuclei in the neointima", "setting": "[7]; 7 days after injury, untreated 31.1±7.2%", "value": "11.8±1.5", "unit": "%"},
      {"measurement": "reduction of neointimal area", "setting": "[7]; 14 days after injury, 5 mg/kg by gavage", "value": 39, "unit": "%"},
      {"measurement": "PCNA-positive nuclei in the neointima", "setting": "[7]; 14 days after injury", "value": "10.4±2.0", "unit": "%"},
      {"measurement": "signs of toxicity related to drug administration", "setting": "[7]; rat, in vivo, 5 mg/kg", "value": "no overt signs of toxicity"},
      {"measurement": "HASMC viability (trypan blue exclusion)", "setting": "[8]", "value": "does not decrease HASMC viability"},
      {"measurement": "HASMC viability (trypan blue exclusion)", "setting": "[8]; listed as Flavopiridol", "value": "no effect"},
      {"measurement": "thrombin- and bFGF-induced Erk1 and Erk2 activity (in-gel kinase)", "setting": "[2]; flavopiridol 75 nmol/L", "value": "no effect"}
    ]}
  ]
}
